Here are results for two compounds from patent publication US20110086388A1, “CHAPERONE-ASSISTED PROTEIN EXPRESSION AND METHODS OF USE” (Duke University, priority 2009, published 2011).

For assay [1], the system named is Actinoplanes ATCC 33076 Ramo16, NAD dependent reductase (native protein, no fusion tag). The experiment in a line: Ramo16 activity assay (continuous spectrophotometric, decrease in NADH absorbance at 340 nm). The conditions noted are these: pseudo-substrate acetoacetyl-CoA varied 0 to 5 mM; 250 μM NADH fixed; 10 μM Ramo16; 50 mM HEPES, pH 7.6, 100 mM NaCl; 25° C. The assay is classed as biochemical. How it is done:
FIG. 8 is a kinetic profile of Ramo16 (10 μM) with varied acetoacetyl-CoA (0 to 5 mM) and fixed NADH (250 μM).
Ramo16, the NAD dependent reductase, was expressed natively in autoinduction media to prevent the formation of insoluble aggregates. Expression in a His6-tagged expression vector led to protein instability and ultimately precipitation.
Cloning and Purification of Ramo16: The ramo16 gene was obtained by PCR amplification from cosmid DNA (OO8CK) from Actinoplanes ATCC 33076 using Herculase Hot Start Polymerase with the following primers: the C-terminal his-tag were Ramo16C-F (5′-GGGAATTCCATATGCGCTTGACCGGCAAGACCCCG-3′), Ramo16C-R (5′-CCCAAGCTTGCGCGTGGTGAATCCGCCGTCGAC-3′, and the N-terminal his-tag were Ramo16N-F (5′-TATACCATGGCTCGCTTGACCGGCAAGAC-3′). and Ramo16N-R (5′-TATAGGATCCTCAGCGCGTGGTGAATCCG-3′). The amplified gene products were cloned into the Zero Blunt Cloning Vector and sequenced. […] Fractions were analyzed by SDS-PAGE and the band corresponding to Ramo16 was excised and the identity of the protein confirmed by Q-TOF. […]
Ramo 16 Activity Assay: Initial rates of Ramo16 were determined by monitoring the decrease in absorbance of NADH at 340 nm at 25° C. The 100 μL reactions were monitored in half-area clear bottom Corning plates using a 96 well plate SpectraMax Molecular Devices spectrophotometer. […]

Assay [2] relates to vancomycin-resistant Enterococcus faecium (VRE). The note with it: cited from earlier work.
The subject of assay [3] is methicillin-resistant Staphylococcus aureus (MRSA). The conditions noted are these: cited from earlier work.

Take `CC(=O)CC(=O)SCCNC(=O)CCNC(=O)[C@H](O)C(C)(C)COP(=O)(O)OP(=O)(O)OC[C@H]1O[C@@H](n2cnc3c(N)ncnc32)[C@H](O)[C@@H]1OP(=O)(O)O` [acetoacetyl-Coenzyme A]: in assay [1], the Km – broadly, the substrate concentration at which the rate is half of its maximum – came to 2350 ± 390 µM; the kcat (commonly the number of substrate molecules converted per active site and unit of time at saturation) amounted to 15.7 ± 1.2 s⁻¹.

ramoplanin A2: the “effectiveness against VRE” value in assay [2] is “highly effective”. In addition, the “effectiveness against MRSA” value in assay [3] is recorded as “highly effective”.
